Tests used:
C. neoformans H99 [1] = experiment: Intravenous model of disseminated cryptococcosis, brain fungal burden (Example 1); format: in vivo, Cryptococcus neoformans in mice
Excerpt: The high in vitro antifungal activity of JH-FK-05 presented promising evidence that it might effectively reduce fungal burden in the context of murine infection. Two models of C. neoformans infection were employed to test this hypothesis (FIG. 7A). First, in the intranasal model, animals were anesthetized and infected with 10^5 cells of wild-type H99 C. neoformans via instillation in the animal's nares. These animals were monitored for 14 days and then sacrificed. This model tests the efficacy of JH-FK-05 to treat a pulmonary infection, which is the most common manifestation of early-stage cryptococcosis in patients. Second, the intravenous (i.v.) model approximates the disseminated stage of disease. […]
Wild-type H99 C. neoformans cells were grown overnight at 30° C. in a roller drum in yeast extract-peptone-dextrose (YPD) medium. […] H99 cells were counted with a hemacytometer and diluted to 2×10^6 cells/mL in PBS for the pulmonary model and 2×10^5 cells/mL in PBS for the disseminated model. […]
Mice were euthanized by CO2 inhalation at the predetermined experimental endpoint. […] A 100-μL aliquot of each dilution was plated on antibiotic plates (YPD, 50 μg/mL ampicillin, and 30 µg/mL chloramphenicol), incubated for 48 to 72 h at 30° C., and assessed for CFU. […] Statistical significance was calculated using an ordinary one-way analysis of variance (ANOVA) with Tukey's multiple-comparison test.

C. neoformans H99 [2] = experiment: Survival in intranasal cryptococcosis model (Example 1); format: in vivo, Cryptococcus neoformans in A/J mice; conditions: 14 days treatment; JH-FK-05 60 mg/kg, fluconazole 12 mg/kg, i.p. daily
Protocol: To verify if this reduction seen in the fungal burdens of JH-FK-05 and combination-treated animals could translate into a meaningful therapeutic effect, the survival of animals infected via the intranasal route was assessed (FIG. 8A). As in the fungal burden model, these animals received daily treatment for only 14 days. Following the termination of treatment, animals were monitored for signs of decline, lethargy, and ultimately, moribundity. Untreated animals in this model typically survive for about 3 weeks, and similar results were observed here (vehicle treatment median survival, 22 days). Corroborating the results of the fungal burden study, a significant extension of survival for both JH-FK-05 (median survival, 26 days) and fluconazole (median survival, 25 days) was observed.
Female A/J mice (3 to 4 weeks old; Jackson Laboratory) were anesthetized utilizing an isoflurane chamber. While anesthetized, […] of 2×10^6 cells/mL suspension was dripped onto the nares of mice, allowing them to inhale the full inoculum. Treatment began 3 h following infection with i.p. dosing of vehicle, 60 mg/kg JH-FK-05, 12 mg/kg fluconazole, or combination. […] After 14 days, animals were either sacrificed for fungal burden analysis or monitored for health and survival until reaching a humane endpoint. […] Statistical significance was determined using log-rank (Mantel-Cox) tests.

`CC[C@@H]1/C=C(\C)C[C@H](C)C[C@H](OC)[C@H]2O[C@@](O)(C(=O)C(=O)N3CCCC[C@H]3C(=O)O[C@H](/C(C)=C/[C@@H]3CC[C@@H](O)[C@H](OC)C3)[C@H](C)[C@@H](O)C/C1=N/NC(C)=O)[C@H](C)C[C@@H]2OC` [JH-FK-05] was tested, and the “reduction of brain fungal burden” value (C. neoformans H99 [1]; day 7, JH-FK-05 60 mg/kg, fluconazole 12 mg/kg, i.p. daily) was 2 fold, the “blood-brain barrier crossing” value (C. neoformans H99 [1]; inferred from brain fungal burden) was “can cross the blood-brain barrier” and the median survival (C. neoformans H99 [2]) was 26 days.
